These are literature values, as cited in US9238024B2, “Methods for improving health in canines” (Quality IP Holdings, LLC, priority 2012, dated 2016).

In data set [1] the test system is canines.
In data set [2] the test system is canines. This is another data set of the same source.

Take `CC(C)(N)C(=O)N[C@H](COCc1ccccc1)C(=O)N1CCC2(CC1)CN(S(C)(=O)=O)c1ccccc12` [MK-0677]: in the data set with canines [1] (canines), the “levels of serum insulin-like growth factor-I” value is given as “elevates”. Also, the “size and strength of the quadriceps muscle” value in the data set with canines [1] (canines during remobilization) is “increases”.
With growth hormone, in the data set with canines [2] (adult canines of both sexes, exogenous growth hormone), the new bone formation entry is given as “marked increase”. The “bone growth factors and fracture healing” value with canines [2] (canines) is “enhances”. In the data set on canines [2] (canines given growth hormone), the “quantity of protein in the blood plasma” value is “increased”.
